Results as given in US10457710B2, “Antimicrobial peptides, their variants and uses” (priority 2015, dated 2019).
Where a SMILES comes first, the peptide text is derived from it. Where no end group is shown, it is not given here. [ ]: non-standard residue; d: D form.

What was measured:
[1] = +4, 25, 37 and 45° C., 14 days, PBS pH 7.4, activity by RDA
Procedure: FIG. 8a. […] Antibacterial activity was tested by aliquoting 20 μg of peptides incubated at different temperature and activity was measured by zone of inhibition. Peptides at −20° C. served as control.
(§1) Thermal stability was evaluated by diluting peptides to the concentration of 2 mg/ml in PBS buffer (pH 7.4) and incubating at different temperatures, such as +4° C., 25° C. (RT), 37° C. and 45° C., peptides stored at −20° C. were used as control. After each time interval, 100 μl (2 mg/ml) of peptides were taken and stored at −20° C. for radial diffusion assay to determine the antibacterial activity (FIG. 8). Peptides were also tested by diluting them at different pH values starting from pH 4 to 9. The effect of NaCl on the antimicrobial activity was tested by adding different concentrations (50, 100 and 200 mM) of NaCl to MH medium and the minimum inhibitory concentrations were tested against 4 ATCC bacterial strains.

[2] = pH 4 to 9, activity by RDA
Procedure: FIG. 9a. pH stability of chain peptides 104 and 105 was determined by radial diffusion assay (RDA). Different pH ranging from 4-9 was used to check the zone of inhibition.
as §1

[3] = tested on: human erythrocytes; assay type: cell-based
Procedure: In hemolysis assays, the ability of peptides at 128 μg/ml concentration to lyse human erythrocytes to release hemoglobin was measured. The peptides described here preferably have low hemolytic activity (0.2 to 3.8% hemolysis) in mammal body. […] These peptides are useful as antimicrobial drugs as they show little or no side effects at concentrations needed to kill bacteria.
Minimum inhibition concentrations (MICs) were tested by microbroth dilution method and Chain 104, 105 and 109 inhibited the growth of Escherichia coli (ATCC 25922), Staphylococcus aureus (ATCC 25923), Klebsiella pneumoniae (ATCC 10031) and Pseudomonas aeruginosa (ATCC 27853) between 1-8 μg/ml respectively (Tables 3a, 3b and 3c). The membranolytic activities of the peptides were tested by measuring the release of hemoglobin from erythrocytes of fresh blood donated by voluntiers. Hemoglobin levels were determined spectrometrically by taking OD at 540 nm by following the protocol of Schmidtchen et al., 2011.

[4] = tested on: S. aureus RN4220; assay type: cell-based; conditions: antibiotic sensitive strain S. aureus RN4220
Procedure: Minimum inhibition concetrations (MICs) were determined against Escherichia coli (ATCC 25922), Staphylococcus aureus (ATCC 25923), Klebsiella pneumoniae (ATCC 10031) and Pseudomonas aeruginosa (ATCC 27853). Also clinical strains of E. coli, K. pneumoniae, E. cloacae, P. aeruginosa, Serratia marcescens, Proteus mirabilis, S. pneumoniae, Acinetobacter baumannii, A. johnsonii and S. aureus were used for MICs assays. Additionally, clinical strains of yeast including Candida albicans, C. glabrata, C. parapsilosis and C. quillermondiae were used. The susceptibility of these microorganisms to Chain peptides were determined using micro broth dilution assay. Colonies of the respective microorganism from Muller Hinton (MH) agar plates incubated overnight were suspended in MH broth media and final concentration of microorganism was adjusted to 5.0×10^5 cfu/ml. An aliquot of 10 μl of each Chain peptide, or gentamicin, tetracycline as reference antibiotics were added in differing concentrations along with 90 μl of bacterial suspension to 96 well polypropylene plates and incubated at 37° C. for 20 to 24 hours. Concentrations of Chain peptides and reference antibiotics ranged from 0.125 to 128 μg/ml and the MICs were recorded as the lowest concentration with no visual growth of bacteria. Similarly, antifungal MICs were tested in Potato dextrose broth.
(§2) Peptides Chain 104, Chain 105, Chain 201, Chain 308, Chain 310 were tested against antibiotic-sensitive strains of S. aureus RN4220 and methicillin resistant strains of S. aureus COL (MRSA). Chain peptides comprising of either L- or D-form amino acids were tested against these bacteria, and the D-form peptides were found have better activity compared to L-form (Table 6). Synergistic activity of chain peptides along with Ertapenem (4 μg/ml) was tested to know whether it will influence the activity against MRSA strains. […] Chain 310 has the best antibacterial activity against the MRSA strains with a MIC of 0.06 & 0.03 μg/ml along with Ertapenem (4 μg/ml) for both forms of L and D-peptides (Table 6).

[5] = tested on: MRSA strains; test: MIC, synergistic activity with Ertapenem (4 μg/ml); assay type: cell-based, S. aureus; conditions: S. aureus COL with 4 μg/ml Ertapenem (synergistic activity)
Procedure: as §2

[6] = tested on: S. aureus; test: Antibacterial activity analysis of protein on LB plate; assay type: cell-based
Procedure: Both folded and unfolded proteins were tested for antibacterial activity against S. aureus by pipetting 10 μg of protein on the S. aureus culture on an LB plate. The activity was also tested in folded and unfolded protein digested with trypsin in 0.01% acetic acid at concentrations of 30 and 60 μg/ml.

KWIVWRWRFKR [Chain201]
thermostability [1]: not hindered by pH or temperature even upto 45 °C for over 14 days | pH stability [2]: not hindered by pH | side effects to humans as tested by hemolysis assay [3]: little side effects to humans

CC[C@@H](C)[C@@H](NC(=O)[C@@H](CCSC)NC(=O)[C@@H](C)NC(=O)[C@@H](CCCNC(=N)N)NC(=O)[C@@H](Cc1c[nH]c2ccccc12)NC(=O)[C@@H](CCCCN)NC(=O)[C@H](N)CCCNC(=N)N)C(=O)N[C@H](CCCNC(=N)N)C(=O)N[C@H](CC(C)C)C(=O)N[C@H](Cc1c[nH]cn1)C(=O)N[C@H](C)C(=O)N[C@H](CCCCN)C(=O)N[C@H](CCCNC(=N)N)C(=O)N[C@H](CC(C)C)C(=O)N[C@H](CCCNC(=N)N)C(=O)N[C@H](CCCCN)C(=O)O [104 D] (H-[dR][dK][dW][dR][dA][dM][dI][dR][dL][dH][dA][dK][dR][dL][dR][dK]-OH)
Minimum inhibitory concentration (MICs), S. aureus RN4220 [4]: 64 µg/mL | Minimum inhibitory concentration (MICs), S. aureus COL + 4 μg/ml Ertapenem [5]: 4 µg/mL

RLKRWRLFRKR [Chain306]
thermostability [1]: not hindered by pH or temperature even upto 45 °C for over 14 days | pH stability [2]: not hindered by pH

RKWRAMIRLHAKWLRK [Compound 105]
Minimum inhibitory concentration (MICs), S. aureus RN4220 [4]: >64 µg/mL | Minimum inhibitory concentration (MICs), S. aureus COL + 4 μg/ml Ertapenem [5]: 0.5 µg/mL

CC(C)C[C@@H](NC(=O)[C@H](N)CCCNC(=N)N)C(=O)N[C@H](CCCCN)C(=O)N[C@H](Cc1c[nH]c2ccccc12)C(=O)N[C@H](Cc1ccccc1)C(=O)N[C@H](CC(C)C)C(=O)N[C@H](CC(C)C)C(=O)N[C@H](Cc1ccccc1)C(=O)N[C@H](CCCNC(=N)N)C(=O)N[C@H](CCCCN)C(=O)N[C@H](CCCNC(=N)N)C(=O)O [308 D] (H-[dR][dL][dK][dW][dF][dL][dL][dF][dR][dK][dR]-OH)
Minimum inhibitory concentration (MICs), S. aureus RN4220 [4]: 4 µg/mL | Minimum inhibitory concentration (MICs), S. aureus COL + 4 μg/ml Ertapenem [5]: 1 µg/mL

RLKWFLLFRKR [Chain308]
thermostability [1]: not hindered by pH or temperature even upto 45 °C for over 14 days | pH stability [2]: not hindered by pH | side effects to humans as tested by hemolysis assay [3]: little side effects to humans

WWRLHAKWKLW [Chain109]
side effects to humans as tested by hemolysis assay [3]: little side effects to humans

KRKWRWLFKKL [Compound 310]
Minimum inhibitory concentration (MICs), S. aureus RN4220 [4]: >64 µg/mL | Minimum inhibitory concentration (MICs), S. aureus COL + 4 μg/ml Ertapenem [5]: 0.06 µg/mL

RKWRAMIRLHAKWLRK [Chain105]
thermostability [1]: not hindered by pH or temperature even upto 45 °C for over 14 days | pH stability [2]: not hindered by pH | side effects to humans as tested by hemolysis assay [3]: little side effects to humans

KRKWRWLFKKL [Chain310]
side effects to humans as tested by hemolysis assay [3]: little side effects to humans

RKWRAMIRLHAKRLRK [Chain104]
thermostability [1]: not hindered by pH or temperature even upto 45 °C for over 14 days | pH stability [2]: not hindered by pH | side effects to humans as tested by hemolysis assay [3]: little side effects to humans

KWIVWRWRFKR [Compound 201]
Minimum inhibitory concentration (MICs), S. aureus RN4220 [4]: 64 µg/mL | Minimum inhibitory concentration (MICs), S. aureus COL + 4 μg/ml Ertapenem [5]: 0.5 µg/mL

RRLIWRRFKWLR [Chain204]
thermostability [1]: not hindered by pH or temperature even upto 45 °C for over 14 days | pH stability [2]: not hindered by pH | side effects to humans as tested by hemolysis assay [3]: little side effects to humans

RLKWFWLFRKR [Chain307]
side effects to humans as tested by hemolysis assay [3]: little side effects to humans

B1: En-MAP1: protein of 549 amino acids from an endophyte of Empetrum nigrum, GenBank accession number KC466596 (protein, listed as Empetrum nigrum)
chain: MRLVAHPVPDAPLYALMIKACSMGIPQPNDNLWKPRNPLLAKEEKTSKRGRTAPDTERALDLFREMTLRYNIRPTAEVYTAIIAACVKRDDMYDKGFGLFKKMVELERNRMSSEGHDSTSFAPTRATYNALLRGCARNKDLLRARWILAEMLRTAQAKWQEFMEKSKKGEEGVQEWELLEVEEMRPDTNTMAFLFYTYASHTTSSKAVPETEGKKELEGKAEERASEVTSVSPVSEPPEPMDESKLVYSLPTSSQAILREVTSLLDRIKSDQGQQSNLLSSVQINSKLLNSYIAVLSAHCRSSQVVERISEVVVGTKENPKSLFEETGTSVNGYTCFTVIDACGMMEHSPDTYHLACEMWQRWLSLVENATFHRENPLKAKEIGLDSRTISDCWSAMIRLHAKYNQVDEAMKLVHEFARLYPPASLFNSLTFEPSSTSSSSLSPRKGVQEISPLFSSTSLTHSIRGRDISRIQNTMSQDPTLQFRAVQILHLRLVELETRPKDLAYLSWLLKSYEHQLQPKRPKSLQGDLFTSRQAAYNRIVQQRTSSR
antibacterial activity against S. aureus ([6]; expressed, folded protein): no activity was observed | antibacterial activity against S. aureus ([6]; folded full protein digested with trypsin, data not shown): antibacterial activity was observed for up to two hours after digestion | antibacterial activity against S. aureus ([6]; trypsin digest of the unfolded protein): No activity was detected
